Measured values published in US11491245B2, “Gadolinium chelate compounds for use in magnetic resonance imaging” (BAYER PHARMA AKTIENGESELLSCHAFT, priority 2015, dated 2022).
Read-outs that look alike come from different tables or passages of the source.

Columns and labels:
[1] = Relaxivity measurements at 1.41 T; type: physicochemical; settings: 1.41 T, 37° C., normalized to Gd; for r1 FBS: fetal bovine serum
Protocol: Relaxivity measurements at 1.41 T were performed using a MiniSpec mq60 spectrometer (Bruker Analytik, Karlsruhe, Germany) operating at a resonance frequency of 60 MHz and a temperature of 37° C. The T1 relaxation times were determined using the standard inversion recovery (IR) method with a fixed relaxation delay of at least 5×T1. The variable inversion time (TI) was calculated automatically by the standard software of the MiniSpec mq60 (8 steps). The T2 measurements were done by using a Carr-Purcell-Meiboom-Gill (CPMG) pulse sequence, applying a relaxation delay of at least 5×T1.
Each relaxivity measurement was performed using three different Gd concentrations (3 concentrations between 0.05 and 2 mM). The T1 and T2 relaxation times of the example compounds 1-10 were measured in different media for example in water, fetal bovine serum (FBS, Sigma, F7524) and human plasma.
(§1) Human plasma preparation: For each experiment fresh blood was taken from a volunteer using 10 mL citrate-tubes (Sarstedt S-Monovette 02.1067.001, 10 mL, Citrate). The 10 mL citrate-tubes were carefully inverted 10 times to mix blood and anticoagulant and centrifuged for 15 minutes at 1811 g at room temperature (Eppendorf, Centrifuge 5810R).
The relaxivities ri (where i=1, 2) were calculated on the basis of the measured relaxation rates Ri in water and plasma: Ri=Ri(0)+ri[CGd], where Ri(0) represent the relaxation rate of the respective solvent and CGd the concentration of the compound normalized to the Gadolinium. The Gadolinium concentrations of the investigated solutions were verified by Inductively Coupled Plasma Mass Spectroscopy (ICP-MS Agilent 7500a, Waldbronn, Germany).

[2] = Relaxivity measurements at 3.0 T; type: physicochemical; settings: 37° C., normalized to Gd, average ± standard deviation
Protocol: Relaxivity measurements at 3.0 T were performed with a whole body 3.0 T MRI Scanner (Philips Intera, Philips Healthcare, Hamburg, Germany) using a knee-coil (SENSE-Knee-8, Philips Healthcare, Hamburg, Germany). The sample tubes (CryoTubetm Vials, Thermo Scientific 1.8 mL, Roskilde, Denmark) were positioned in 3 rows of 4 and 5 tubes in a plastic holder in a box filled with water. The temperature was adjusted to 37° C. For the MRI sequence, the shortest possible echo-time (TE) with 7.46 milliseconds was used. The inversion times were chosen to optimize the sequence to measure T1 values corresponding to the estimated T1 range of all relaxation times of contrast media containing solutions. The following inversion times (TIs) were applied: 50, 100, 150, 200, 300, 500, 700, 1000, 1400, 2100, 3200, and 4500 milliseconds. The sequence was run with a constant relaxation delay of 3.4 seconds after the registration of the last echo (variable TR in the range from 3450 to 7900 milliseconds). For details of the fit procedure, see Rohrer et. al. (Invest. Radiol. 2005; 40, 11: 715-724). The experimental matrix of the phantom measurement was 320×320.
The relaxivities were evaluated using three different concentrations of each compound (3 concentrations between 0.05 and 2 mM).
as §1, with “The T1 relaxation times of the Example compounds 1-6 were measured in water and human plasma. Human” for “Human”
The relaxivities ri (where i=1, 2) were calculated on the basis of the measured relaxation rates Ri in water and plasma: Ri=Ri(0)+ri[CGd], where Ri(0) represent the relaxation rate of the respective solvent and CGd the concentration of the compound normalized to the Gadolinium (Table 2).

[3] = Water solubility; type: physicochemical; settings: 10 mM Tris-HCl buffer, 20° C.
Protocol: The water solubility of the compounds was determined at room temperature (20° C.) in 0.5 mL buffer solution (10 mM Tris-HCl) in the microcentrifuge tubes (Eppendorf, 2.0 mL safe-lock caps). The solid compound was added stepwise to the buffer solution. The suspension was mixed using a shaker (Heidolph Reax 2000) and treated 5 min in an ultrasound bath (Bandelin, Sonorex Super RK255H) The suspension was stored at room temperature (20° C.) over night and final Gadolinium concentration was determined by inductively coupled plasma mass spectrometry (ICP-MS).

[4] = 37° C., cited from earlier work; for r1 FBS: bovine plasma
[5] = reference compounds (marked ^), 3.0 T, average ± standard deviation
[6] = reference compounds, 1.5 T, from Rohrer et al.

`C[C@H](C(=O)NCC(=O)NCC(CNC(=O)CNC(=O)[C@@H](C)N1CCN(CC(=O)[O-])CCN(CC(=O)[O-])CCN(CC(=O)[O-])CC1)(CNC(=O)CNC(=O)[C@@H](C)N1CCN(CC(=O)[O-])CCN(CC(=O)[O-])CCN(CC(=O)[O-])CC1)CNC(=O)CNC(=O)[C@@H](C)N1CCN(CC(=O)[O-])CCN(CC(=O)[O-])CCN(CC(=O)[O-])CC1)N1CCN(CC(=O)[O-])CCN(CC(=O)[O-])CCN(CC(=O)[O-])CC1.[Gd+3].[Gd+3].[Gd+3].[Gd+3]` [Example 3-1, Tetragadolinium {4,10-bis(carboxylatomethyl)-7-[(2R,16R)-3,6,12,15-tetraoxo-16-[4,7,10-tris(carboxylatomethyl)-1,4,7,10-tetraazacyclododecan-1-yl]-9,9-bis({[({(2R)-2-[4,7,10-tris(carboxylatomethyl)-1,4,7,10-tetraazacyclododecan-1-yl]propanoyl}amino)-acetyl]amino}methyl)-4,7,11,14-tetraazaheptadecan-2-yl]-1,4,7,10-tetraazacyclo-dodecan-1-yl}acetate] gave a r1 human plasma [1] of 10.4 L/mmol/s, a r1 water [1] of 9.5 L/mmol/s and a r1 human plasma [2] of 10.1 ± 0.1 L/mmol/s. It also gave a r1 water [2] of 8.9 ± 0.2 L/mmol/s.
`C[C@@H](C(=O)NCC(=O)NCC(CNC(=O)CNC(=O)[C@H](C)N1CCN(CC(=O)[O-])CCN(CC(=O)[O-])CCN(CC(=O)[O-])CC1)(CNC(=O)CNC(=O)[C@H](C)N1CCN(CC(=O)[O-])CCN(CC(=O)[O-])CCN(CC(=O)[O-])CC1)CNC(=O)CNC(=O)[C@H](C)N1CCN(CC(=O)[O-])CCN(CC(=O)[O-])CCN(CC(=O)[O-])CC1)N1CCN(CC(=O)[O-])CCN(CC(=O)[O-])CCN(CC(=O)[O-])CC1.[Gd+3].[Gd+3].[Gd+3].[Gd+3]` [Example 3-2, Tetragadolinium {4,10-bis(carboxylatomethyl)-7-[(2S,16S)-3,6,12,15-tetraoxo-16-[4,7,10-tris(carboxylatomethyl)-1,4,7,10-tetraazacyclododecan-1-yl]-9,9-bis({[({(2S)-2-[4,7,10-tris(carboxylatomethyl)-1,4,7,10-tetraazacyclododecan-1-yl]propanoyl}amino)acetyl]-amino}methyl)-4,7,11,14-tetraazaheptadecan-2-yl]-1,4,7,10-tetraazacyclododecan-1-yl}-acetate] showed a r1 human plasma [1] of 11.4 L/mmol/s, a r1 water [1] of 9.4 L/mmol/s and a r1 human plasma [2] of 11.4 ± 0.2 L/mmol/s. For the same compound, the r1 water [2] was 9.0 ± 0.4 L/mmol/s.
For `CC(C(=O)NCC(=O)N1CCN(C(=O)CNC(=O)C(C)N2CCN(CC(=O)[O-])CCN(CC(=O)[O-])CCN(CC(=O)[O-])CC2)CCN(C(=O)CNC(=O)C(C)N2CCN(CC(=O)[O-])CCN(CC(=O)[O-])CCN(CC(=O)[O-])CC2)CCN(C(=O)CNC(=O)C(C)N2CCN(CC(=O)[O-])CCN(CC(=O)[O-])CCN(CC(=O)[O-])CC2)CC1)N1CCN(CC(=O)[O-])CCN(CC(=O)[O-])CCN(CC(=O)[O-])CC1.[Gd+3].[Gd+3].[Gd+3].[Gd+3]` (centres unmarked) [Example 7, Tetragadolinium 2,2′,2″,2′″,2″″,2′″″,2″″″,2′″″″,2″″″″,2′″″″″,2″″″″″,2′″″″″″-{1,4,7,10-tetra-azacyclododecane-1,4,7,10-tetrayltetrakis[(2-oxoethane-2,1-diyl)imino(1-oxopropane-1,2-diyl)-1,4,7,10-tetraazacyclododecane-10,1,4,7-tetrayl]}dodecaacetate], the Solubility [3] was over 1400 mmol Gd/L, the “r1 FBS” value [1] was 11.7 L/mmol/s and the r1 human plasma [1] was 12.1 L/mmol/s. For the same compound, the r1 water [1] was 10.8 L/mmol/s.
With `O=C([O-])CN1CCN(CC(=O)[O-])CCN(CC(=O)NCC(CNC(=O)CN2CCN(CC(=O)[O-])CCN(CC(=O)[O-])CCN(CC(=O)[O-])CC2)(CNC(=O)CN2CCN(CC(=O)[O-])CCN(CC(=O)[O-])CCN(CC(=O)[O-])CC2)CNC(=O)CN2CCN(CC(=O)[O-])CCN(CC(=O)[O-])CCN(CC(=O)[O-])CC2)CCN(CC(=O)[O-])CC1.[Gd+3].[Gd+3].[Gd+3].[Gd+3]` [Example 10, Tetragadolinium {4,10-bis(carboxylatomethyl)-7-[2-oxo-2-({3-({[4,7,10-tris(carboxylato-methyl)-1,4,7,10-tetraazacyclododecan-1-yl]acetyl}amino)-2,2-bis[({[4,7,10-tris-(carboxylatomethyl)-1,4,7,10-tetraazacyclododecan-1-yl]acetyl}amino)methyl]propyl}-amino)ethyl]-1,4,7,10-tetraazacyclododecan-1-yl}acetate] the Solubility [3] was over 800 mmol Gd/L, the “r1 FBS” value [1] was 9.2 L/mmol/s and the r1 human plasma [1] was 9.7 L/mmol/s. For the same compound, the r1 water [1] was 7.3 L/mmol/s.
In the case of `CNC[C@H](O)[C@@H](O)[C@H](O)[C@H](O)CO.CNC[C@H](O)[C@@H](O)[C@H](O)[C@H](O)CO.O=C([O-])CN(CCN(CC(=O)[O-])CC(=O)O)CCN(CC(=O)[O-])CC(=O)O.[Gd+3]` [Reference compound 2, gadopentetate dimeglumine], the r1 human plasma [4, 5] is listed as 3.7 ± 0.2 L/mmol/s, the r1 water [4, 5] is listed as 3.1 ± 0.3 L/mmol/s and the “r1 FBS” value [4, 6] is listed as 4.1 L/mmol/s. For the same compound, the r1 water [4, 6] was 3.3 L/mmol/s.
In the case of `CCOc1ccc(CC(CN(CCN(CC(=O)[O-])CC(=O)[O-])CC(=O)[O-])N(CC(=O)[O-])CC(=O)[O-])cc1.[Gd+3].[Na+].[Na+]` (centres unmarked) [Reference compound 3, gadoxetate disodium], the r1 human plasma [4, 5] is listed as 6.2 ± 0.3 L/mmol/s, the r1 water [4, 5] is listed as 4.3 ± 0.3 L/mmol/s and the “r1 FBS” value [4, 6] is listed as 6.9 L/mmol/s. The r1 water [4, 6] was 4.7 L/mmol/s.
For Gadomer-17 [Reference compound 4], the r1 human plasma [4, 5] is listed as 13 ± 1 L/mmol/s, the r1 water [4, 5] is listed as 13.0 ± 0.7 L/mmol/s and the “r1 FBS” value [4, 6] is listed as 16 L/mmol/s. For the same compound, the r1 water [4, 6] was 17.3 L/mmol/s.
With “Hexagadolinium 2,2′,2″,2′″,2″″,2′″″,2″″″,2′″″″,2″″″″,2′″″″″,2″″″″″,2′″″″″″,2″″″″″″, 2′″″″″″″,2″″″″″″″, 2′″″″″″″″,2″″″″″″″″,2′″″″″″″″″-{3,7,10-triazatricyclo[3.3.3.0^1,5]undecane-3,7,10-triyltris[carbonyl(3,6,11,14-tetraoxo-4,7,10,13-tetraazahexadecane-8,2,15-triyl)di-1,4,7,10-tetraazacyclododecane-10,1,4,7-tetrayl]}octadecaacetate [Example 8]” the Solubility [3] was over 1000 mmol Gd/L, the “r1 FBS” value [1] was 14.5 L/mmol/s and the r1 human plasma [1] was 14.6 L/mmol/s. For the same compound, the r1 water [1] was 12.5 L/mmol/s.
In the case of “Tetragadolinium 2,2′,2″,2′″,2″″,2′″″,2″″″,2′″″″,2″″″″,2′″″″″,2″″″″″,2′″″″″″-(3,7,9-triazabicyclo[3.3.1]nonane-3,7-diylbis{carbonyl-1,4-diazepane-6,1,4-triylbis[(2-oxoethane-2,1-diyl)-1,4,7,10-tetraazacyclododecane-10,1,4,7-tetrayl]})dodecaacetate [Example 9]”, the Solubility [3] is reported as over 800 mmol Gd/L, the “r1 FBS” value [1] is reported as 8.8 L/mmol/s and the r1 water [1] is reported as 7.4 L/mmol/s.
